Laboratory results as given in patent publication US11028138B2, “Compositions and methods for using actin-based peptides to modulate cellular bioactivity and cellular susceptibility to intracellular pathogens” (priority 2016, dated 2021).

What was measured:
[1] = test system: HIV-1; settings: pretreatment; cited from earlier work
[2] = test system: HIV-1; settings: dosages that did not affect CD4 T cell activation or induce cytotoxicity; cited from earlier work
[3] = test system: Influenza A virus (IAV); settings: A549 cells; read-out: IC50, reduction of viral replication; cited from earlier work
[4] = test system: Influenza A virus (IAV); settings: vs solvent-treated control mice; cited from earlier work
[5] = test system: Human T lymphoblast cell A3.01; assay: N10-mediated cell killing, Propidium iodide and FITC-Annexin V staining, flow cytometry; type: cell-based; settings: 10 uM; A3.01 cells
Method: FIG. 8: Human T lymphoblast cell A3.01 was treated with N10 (10 uM). N10-mediated cell killing was monitored by staining of dead cells with Propidium iodide and FITC-labelled Annexin V. Cells were analyzed by flow cytometry.
N10-mediated cell killing was monitored by staining of dead cells with Propidium iodide and FITC-labelled Annexin V. Cells were analyzed by flow cytometry.
• 5) Culture human A3.01 cells at 5×10^5 cells/ml • 6) Add peptide N10 to the cell to a final concentration of 10 uM • 7) Continue to culture cell at 37° C., maintain cell density below 1×10^6 cells/ml 8) Take out 1-2×10^5 cells, put on ice, add P.I., and FITC—Annexin V as recommended by the reagent manufacturer for dead/apoptotic cell staining. • 9) Analyzed the staining by flow cytometer.

[6] = test system: actin; assay: Actin polymerization and depolymerization by FITC-phalloidin staining in resting CD4 T cells; type: cell-based
Method: (§1) FIG. 5: Peptide N7 and N9 modulate cell signal transduction and chemotactic cofilin and actin activity. (A) Resting memory CD4 T cells were treated with N7 for a time course, cofilin phosphorylation was measured by Western Blot. Total cofilin and GAPDH was also measured for loading control. (B) Resting CD4 T cells were treated with N9, and actin polmerization and depolymerization were measured by FITC-phalloidin staining.
(§2) Resting memory CD4 T cells were treated with N7 for a time course, and cofilin phosphorylation was measured by Western Blot. Total cofilin and GAPDH was also measured for loading control (FIG. 5A). Resting CD4 T cells were treated with N9, and actin polmerization and depolymerization were measured by FITC-phalloidin staining (FIG. 5B).

[7] = test system: HIV; assay: HIV DNA synthesis, 2-LTR circles and DNA integration in CEM-SS T cells and blood resting CD4 T cells; type: cell-based; settings: for HIV DNA synthesis / HIV nuclear migration (2-LTR circles): peptide during 2 h infection; for HIV DNA integration: resting CD4 T cells, no T cell activation
Method: (§3) FIG. 6: Peptide N7 and N9 enhance HIV DNA synthesis, nuclear migration, and integration. (A) CEM-SS T cells were treated with N7 during HV infection for 2 hours, washed, and then analyzed for viral DNA synthesis and 2-LTR circles, a marker for HIV nuclear migration. (B) Blood resting CD4 T cells were similar infected, washed, and cultured without T cell activation. Viral DNA synthesis and DNA integration were analyzed.
as §3, with “CEM-SS” for “FIG. 6: Peptide N7 and N9 enhance HIV DNA synthesis, nuclear migration, and integration. (A) CEM-SS”, “migration.” for “migration. (B)”

[8] = test system: HIV; assay: HIV infection of resting CD4 T cells, viral p24 release; type: cell-based
Method: FIG. 7: Peptide N9 promotes HIV infection of resting CD4 T cells. Resting CD4 T cells were treated with N9, and then infected with HIV for 2 hours. Following infection, cells were washed, and culture in the absence of T cell activation and N9. Viral p24 release was measured. As controls, cells were culture with the addition of IL-7 (daily addition), or with a scrambled peptide, or only in the culture medium.
The ability of N9 to stimulate HIV infection of blood resting CD4 T cells was also tested. Resting CD4 T cells are relatively resistant to HIV infection. The lack of activity in the cortical actin limits viral early steps in the infection of resting T cells (Yoder et aI., 2008).

[9] = test system: HIV-1; settings: Rev-CEM-GFP; 2 h infection; 2 days post infection; viable (low PI) cells; HIV alone 0.79% (N7 experiment), 1.95% (N9 experiment)
Method: (A) The HIV Rev-dependent indicator cell, Rev-CEM-GFP, was not infected (+Cell) or infected with HIV-1 (+HIV), or pre-treated with peptide N7, and then infected with HIV-1 (N7+HIV). Following infection for 2 hours, cells were washed to remove the virus and the peptide. Viral replication was measured at 2 days post infection by flow cytometry. […] PI, propidium iodide, was added before flow cytometry for cytotoxicity control. GFP+ cells were counted only when the cells are viable (low PI staining). (B) Effects of peptide N9 were similarly measured.
The HIV Rev-dependent indicator cell, Rev-CEM-GFP, was not infected (+Cell) or infected with HIV-1 (+HIV), or pre-treated with peptide N7, and then infected with HIV-1 (N7+HIV). Following infection for 2 hours, cells were washed to remove the virus and the peptide. Viral replication was measured at 2 days post infection by flow cytometry.
PI, propidium iodide, was added before flow cytometry for cytotoxicity control. GFP+ cells were counted only when the cells are viable (low PI staining).

[10] = test system: surface CXCR4 receptors; assay: Surface receptor staining and flow cytometry after peptide stimulation (CXCR4); type: cell-based, human; settings: T cells exposed to peptide, 10 uM, 5 to 120 min
Method: (§4) FIG. 4: Up-regulation of cell surface receptors by N7. CEM-SS T cells or blood resting CD4 T cells were stimulated with peptide N7 for a time course. Effects on surface CD4, CXCR4 density were measured by anti-CD4 or anti-CXCR4, followed by flow cytometry.
(§5) • 1) Culture human CEM-SS T cells at 5×10^5 cells/ml • 2) Add peptide N7 to the cell to a final concentration of 10 uM at various times from 5 min to 120 min (e. g. 5, 10, 15, 30, 45, 60, 120 min). • 3) Take out 1-2×10^5 cells, put on ice, perform routine surface staining using FITC-, PE- or PE-cy5-labelled specific antibodies against cell receptors as recommended by the reagent manufacturer for cell surface staining. • 4) Analyzed the staining by flow cytometer.

[11] = test system: surface CD4 receptor; assay: Surface receptor staining and flow cytometry after peptide stimulation (CD4); type: cell-based, human; settings: T cells exposed to peptide, 10 uM, 5 to 120 min
Method: as §4, §5

[12] = test system: cofilin; assay: Cofilin phosphorylation by Western Blot in resting memory CD4 T cells; type: cell-based; settings: time course
Method: as §1, §2

## C=C1[C@@H](C)[C@H]2[C@H](Cc3ccccc3)NC(=O)[C@]23[C@H](OC(C)=O)/C=C/[C@@](C)(O)C(=O)[C@@H](C)C/C=C/[C@H]3[C@@H]1O [CCD, cytochalasin D]
[1]
  Reduction of nuclear accumulation of late RT products: 25 fold

## O=C1CSC(c2cccc(Br)c2)N1c1cc(Cl)ccc1O (stereo not shown) [CK-548]
[2]
  HIV-1 replication: dramatically reduced

## CCN(CC)CCCC(C)Nc1nc(C)cc(Nc2ccc3nc(C)cc(N)c3c2)n1 (stereo not shown) [NSC23766]
[3]
  IC50: 22 µM
[4]
  Body weights: increased
  Survivability: higher
  Titer of IAV in lung tissue: reduce titer

## RRRRRRRR(G/A)0-20AGRDLTDYLMKILTERGYSF [Peptide N10]
[5]
  Cell killing: killing of T cells

## RRRRRRRR(G/A)0-20HTVRIYEGYALRHAILRLDL [Peptide N9]
[6]
  Actin polymerization/depolymerization: modulate
[7]
  HIV DNA synthesis: enhance
  HIV nuclear migration (2-LTR circles): enhance
  HIV DNA integration: enhance
[8]; early time
  Stimulation of viral infection compared with IL-7 (administered daily): more potent
[8]; single-dosage treatment prior to infection, no T cell activation or cytokine stimulation
  HIV infection of resting T cells (p24 release): drastically stimulated
[9]
  HIV infection, percentage of GFP+ cells: 14.07%

## RRRRRRRR(G/A)0-20QIMFETENTPAMYVAIQAVL [Peptide N7]
[10]
  Surface CXCR4 receptor density: drastically up-regulate
[11]
  Surface CD4 receptor density: moderate up-regulation
[12]
  Cofilin activation: briefly triggers cofilin activation
[6]
  Actin polymerization/depolymerization: actin depolymerization
[7]
  HIV DNA synthesis: enhance
  HIV nuclear migration (2-LTR circles): enhance
  HIV DNA integration: enhance
[9]
  HIV infection, percentage of GFP+ cells: 15.5%
